Measured values taken from ChEMBL document CHEMBL1201862, “PubChem BioAssay data set” (2004).
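All cell lines were grown in 96-well plates and treated with compound for 48 hours. GI50 marks 50% less growth.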 Active and inactive are the calls of the source. Rule as the data show it: active = GI50 up to about 1.1 µM and inactive = higher.

How the values were obtained:
Test in all cases: NCI tumour cell line growth inhibition, 48 h
[1] = system: 786-0
[2] = system: A498
[3] = system: A549
[4] = system: ACHN
[5] = system: CAKI-1
[6] = system: CCRF-CEM
[7] = system: COLO 205
[8] = system: DU-145
[9] = system: EKVX
[10] = system: HCC 2998
[11] = system: HCT-116
[12] = system: HCT-15
[13] = system: HL-60
[14] = system: HOP-62
[15] = system: HOP-92
[16] = system: HT-29
[17] = system: Hs-578T
[18] = system: IGROV-1
[19] = system: K562
[20] = system: KM12
[21] = system: LOX IMVI
[22] = system: M14
[23] = system: MCF7
[24] = system: MDA-MB-231
[25] = system: MDA-MB-435
[26] = system: MDA-N
[27] = system: MOLT-4
[28] = system: Malme-3M
[29] = system: NCI-H226
[30] = system: NCI-H23
[31] = system: NCI-H460
[32] = system: NCI-H522
[33] = system: NCI/ADR-RES
[34] = system: OVCAR-3
[35] = system: OVCAR-4
[36] = system: OVCAR-5
[37] = system: OVCAR-8
[38] = system: PC-3
[39] = system: RPMI-8226
[40] = system: RXF 393
[41] = system: SF-268
[42] = system: SF-295
[43] = system: SF-539
[44] = system: SK-MEL-28
[45] = system: SK-MEL-2
[46] = system: SK-MEL-5
[47] = system: SK-OV-3
[48] = system: SN12C
[49] = system: SNB-19
[50] = system: SNB-75
[51] = system: SR
[52] = system: SW-620
[53] = system: T47D
[54] = system: TK-10
[55] = system: U-251
[56] = system: UACC-257
[57] = system: UO-31
[58] = system: BT-549
[59] = system: UACC-62

## CC(=O)c1c2c(cc3c1CC1(Cc4ccccc4C1=O)C3)CCC2 (configuration not stated)
[1]
  GI50: 22.3 µM (inactive)
[2]
  GI50: 17.5 µM (inactive)
[3]
  GI50: 28.2 µM (inactive)
[4]
  GI50: 21.7 µM (inactive)
[5]
  GI50: 8.55 µM (inactive)
[6]
  GI50: 16.8 µM (inactive)
[7]
  GI50: 14.3 µM (inactive)
[8]
  GI50: 34.7 µM (inactive)
[9]
  GI50: 7.06 µM (inactive)
[10]
  GI50: 27.5 µM (inactive)
[11]
  GI50: 16.7 µM (inactive)
[12]
  GI50: 32.1 µM
[13]
  GI50: 5.2 µM (inactive)
[14]
  GI50: 30.4 µM (inactive)
[15]
  GI50: 12.2 µM (inactive)
[16]
  GI50: 20.5 µM (inactive)
[17]
  GI50: 28.8 µM (inactive)
[18]
  GI50: 16.3 µM (inactive)
[19]
  GI50: 16.3 µM (inactive)
[20]
  GI50: 16.2 µM (inactive)
[21]
  GI50: 19.7 µM (inactive)
[22]
  GI50: 27.3 µM (inactive)
[23]
  GI50: 17.1 µM (inactive)
[24]
  GI50: 22.3 µM (inactive)
[25]
  GI50: 22.3 µM (inactive)
[26]
  GI50: 28.6 µM (inactive)
[27]
  GI50: 10.6 µM (inactive)
[28]
  GI50: 16.8 µM (inactive)
[29]
  GI50: 22.9 µM (inactive)
[30]
  GI50: 16 µM (inactive)
[31]
  GI50: 28.6 µM (inactive)
[32]
  GI50: 25.5 µM (inactive)
[33]
  GI50: 14.5 µM (inactive)
[34]
  GI50: 15.1 µM (inactive)
[35]
  GI50: 75.2 µM (inactive)
[36]
  GI50: 51.2 µM (inactive)
[37]
  GI50: 18 µM (inactive)
[38]
  GI50: 41.3 µM (inactive)
[39]
  GI50: 5.66 µM (inactive)
[40]
  GI50: 12 µM (inactive)
[41]
  GI50: 37.9 µM (inactive)
[42]
  GI50: 25.2 µM (inactive)
[43]
  GI50: 31.8 µM (inactive)
[44]
  GI50: 20.9 µM (inactive)
[45]
  GI50: 27.1 µM (inactive)
[46]
  GI50: 10.3 µM (inactive)
[47]
  GI50: 48.9 µM (inactive)
[48]
  GI50: 21.5 µM (inactive)
[49]
  GI50: 45.2 µM (inactive)
[50]
  GI50: 32 µM (inactive)
[51]
  GI50: 15.3 µM (inactive)
[52]
  GI50: 32.3 µM (inactive)
[53]
  GI50: 6.87 µM (inactive)
[54]
  GI50: 20.5 µM (inactive)
[55]
  GI50: 24.4 µM (inactive)
[56]
  GI50: 17.9 µM (inactive)
[57]
  GI50: 21.2 µM (inactive)

## Oc1ccc(-c2nc3ccc(Cl)cc3s2)cc1
[2]
  GI50: 20 µM (inactive)
[3]
  GI50: 20.8 µM (inactive)
[4]
  GI50: 76.7 µM (inactive)
[58]
  GI50: 18.7 µM (inactive)
[5]
  GI50: 20.2 µM (inactive)
[6]
  GI50: 5.35 µM (inactive)
[7]
  GI50: 17.7 µM (inactive)
[8]
  GI50: 17.3 µM (inactive)
[9]
  GI50: 16.2 µM (inactive)
[11]
  GI50: 16 µM (inactive)
[12]
  GI50: 15.7 µM
[13]
  GI50: 13.8 µM (inactive)
[16]
  GI50: 18.4 µM (inactive)
[18]
  GI50: 16.5 µM (inactive)
[19]
  GI50: 28.2 µM (inactive)
[20]
  GI50: 16.3 µM (inactive)
[21]
  GI50: 21.4 µM (inactive)
[22]
  GI50: > 100 µM (inactive)
[23]
  GI50: 7.41 µM (inactive)
[24]
  GI50: 22.6 µM (inactive)
[25]
  GI50: 18.5 µM (inactive)
[26]
  GI50: 18.8 µM (inactive)
[27]
  GI50: 26.7 µM (inactive)
[28]
  GI50: 19.3 µM (inactive)
[29]
  GI50: 20 µM (inactive)
[30]
  GI50: 18.3 µM (inactive)
[31]
  GI50: 18.8 µM (inactive)
[32]
  GI50: 16.3 µM (inactive)
[33]
  GI50: 23.4 µM (inactive)
[34]
  GI50: 23.5 µM (inactive)
[36]
  GI50: 17.9 µM (inactive)
[37]
  GI50: 19.3 µM (inactive)
[38]
  GI50: 20.4 µM (inactive)
[39]
  GI50: 20.1 µM (inactive)
[40]
  GI50: 19.8 µM (inactive)
[41]
  GI50: 17.2 µM (inactive)
[42]
  GI50: 19.3 µM (inactive)
[43]
  GI50: 16.2 µM (inactive)
[45]
  GI50: 18.4 µM (inactive)
[46]
  GI50: 18.2 µM (inactive)
[47]
  GI50: 20.2 µM (inactive)
[48]
  GI50: 19.4 µM (inactive)
[49]
  GI50: 20.2 µM (inactive)
[51]
  GI50: 23.7 µM (inactive)
[52]
  GI50: 21.1 µM (inactive)
[54]
  GI50: 20.4 µM (inactive)
[55]
  GI50: 19.7 µM (inactive)
[56]
  GI50: 19.6 µM (inactive)
[59]
  GI50: 16.9 µM (inactive)
[57]
  GI50: 14.2 µM (inactive)
